This note sets out measurements from patent publication US20240287048A1, “SUBSTITUTED ACYL SULFONAMIDES FOR TREATING CANCER” (The Broad Institute, Inc., priority 2020, published 2024).

The subject of data set [1] is Salmonella tester strain TA1537. Nature of the data set: Bacterial reverse gene mutation test Ames MPF Penta I, TA1537. The data set is classed as cell-based. An excerpt:
(§1) The employed commercial assay Ames MPF Penta I comprises the histidine auxotrophic Salmonella tester strains TA98, TA100, TA1535, TA1537 and two tryptophan auxotrophic tester strains E. coli wp2 (E. coli wp2 [pKM101] and E. coli wp2 uvrA, combined exposure). These strains meet the requirements of the OECD guideline 471 for testing chemicals.
(§2) Bacterial strains were exposed to various concentrations of the test compounds in a histidine (His) or tryptophane (Trp) deficient medium. As recommended by ICH S2(R1) guideline, the test was conducted in two assay conditions, with and without addition of microsomal enzymes (S9 mix), taking the potential formation of DNA reactive metabolites via xenobiotic biotransformation into account.
(§3) The potential of the test compound to induce gene mutations is assessed by comparing the control with the test compounds treated bacterial cultures.

The test system of a further data set is LCLC-97TM1 cells. Put plainly: Proliferation assay in LCLC-97TM1 cells. The data set is classed as cell-based. The following applies: Homo sapiens, 144 h, Alamar Blue, read-out: LCLC97TM1 proliferation assay, EC50[M] (arithmetic mean). In short, it runs like this: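 LCLC-97TM1 large-cell lung carcinoma cells were seeded at 6000 per well in RPMI 1640 with 2.5% FBS and exposed to compound for 144 h at 37 °C, 5% CO2, in triplicate. Viability was read by Alamar Blue fluorescence at 590 nm after 2 h.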
(The colour change of resazurin is a common sign of viable cells or microbes.)

In a further data set the target is T1, KAT6B (Homo sapiens, UniProt Q8WYB5).
T1 construct: fused on or other part: N-terminal GST tag
T1 sequence (Q8WYB5 723-2073 limits assumed): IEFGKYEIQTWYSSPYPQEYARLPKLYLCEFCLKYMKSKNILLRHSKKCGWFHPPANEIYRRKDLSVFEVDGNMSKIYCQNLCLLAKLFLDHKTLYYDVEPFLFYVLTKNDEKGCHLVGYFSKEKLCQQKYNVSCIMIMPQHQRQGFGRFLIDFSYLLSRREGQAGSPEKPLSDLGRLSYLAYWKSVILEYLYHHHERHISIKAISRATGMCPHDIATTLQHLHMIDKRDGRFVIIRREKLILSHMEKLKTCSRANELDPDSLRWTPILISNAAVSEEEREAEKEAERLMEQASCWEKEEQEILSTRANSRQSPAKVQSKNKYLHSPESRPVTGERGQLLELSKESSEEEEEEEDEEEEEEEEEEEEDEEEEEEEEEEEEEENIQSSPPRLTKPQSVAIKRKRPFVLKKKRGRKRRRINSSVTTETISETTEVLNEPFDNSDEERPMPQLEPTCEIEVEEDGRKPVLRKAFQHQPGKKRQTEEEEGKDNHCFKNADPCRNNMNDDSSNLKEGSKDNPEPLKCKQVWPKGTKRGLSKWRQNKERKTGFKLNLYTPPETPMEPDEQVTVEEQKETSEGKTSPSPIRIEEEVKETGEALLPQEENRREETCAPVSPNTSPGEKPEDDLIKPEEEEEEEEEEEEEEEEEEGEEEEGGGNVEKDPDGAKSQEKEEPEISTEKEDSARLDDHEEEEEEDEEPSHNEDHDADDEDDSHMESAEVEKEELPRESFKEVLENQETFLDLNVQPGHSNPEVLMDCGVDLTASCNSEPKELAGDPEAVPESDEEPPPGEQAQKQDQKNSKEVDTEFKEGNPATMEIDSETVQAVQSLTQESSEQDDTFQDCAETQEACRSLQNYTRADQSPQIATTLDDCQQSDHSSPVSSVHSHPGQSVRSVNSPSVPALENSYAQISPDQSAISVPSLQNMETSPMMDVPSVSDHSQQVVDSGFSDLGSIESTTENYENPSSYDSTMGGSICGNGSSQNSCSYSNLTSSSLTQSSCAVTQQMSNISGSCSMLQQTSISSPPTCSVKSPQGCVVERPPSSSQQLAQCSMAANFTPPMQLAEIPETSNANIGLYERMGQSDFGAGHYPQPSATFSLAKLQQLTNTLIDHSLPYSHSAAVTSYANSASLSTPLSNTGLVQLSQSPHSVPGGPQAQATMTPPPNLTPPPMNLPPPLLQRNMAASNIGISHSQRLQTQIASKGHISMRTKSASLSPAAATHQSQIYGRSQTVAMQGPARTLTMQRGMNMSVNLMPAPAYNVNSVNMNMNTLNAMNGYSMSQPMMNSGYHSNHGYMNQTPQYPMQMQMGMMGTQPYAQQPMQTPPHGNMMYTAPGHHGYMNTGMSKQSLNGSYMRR
Nature of the data set: Kat6b activity assay (TR-FRET, acetylation of biotinylated histone H4 peptide). The class given is biochemical. Particulars: recombinant human GST-tagged Kat6b (431-end), 30 mins at 22° C., read-out: KAT6B activity assay IC50 [mol/l] (arithmetic mean). For orientation: Time-resolved FRET reads energy transfer from a long-lived donor to a nearby acceptor.

Data set [2] has as its system Salmonella tester strain TA98. Nature of the data set: Bacterial reverse gene mutation test Ames MPF Penta I, TA98. The class given is cell-based.
Source text: as §1, §2, §3

A further data set concerns ZR-75-1 cells. Put plainly: Proliferation assay in ZR-75-1 cells. The class given is cell-based. Particulars: Homo sapiens, 144 h, Alamar Blue, read-out: ZR75-1 proliferation assay, EC50[M] (arithmetic mean). In short, it runs like this:
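KAT6A-amplified ZR-75-1 cells (RPMI 1640, 2.5% FBS) and KAT6A-low MDA-MB-436 cells (DMEM/Ham's F12, 2.5% FBS) were seeded at 3000 cells/well. Treatment lasted 144 h at 37 °C, 5% CO2, in triplicate. Viability was read by Alamar Blue (2 h) fluorescence at […].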

Where only a bound is given, the exact number is not on record here.

With `O=C(NS(=O)(=O)c1ccccc1-c1ccccc1)c1cc2ccc(C3CC3)cc2o1` [Example 16, N-([1,1′-biphenyl]-2-sulfonyl)-6-cyclopropyl-1-benzofuran-2-carboxamide], the “Result of the bacterial reverse gene mutation test Ames MPF Penta I, TA1537” value in data set [1] (with addition of S9 mix) and in data set [1] (without addition of S9 mix) was “negative” throughout. Moreover, the EC50 in the data set on LCLC-97TM1 cells is 1.14e-05 M; with ZR-75-1 cells, 5.93e-06 M. Moreover, on KAT6B, the IC50 turned out to be 0.104 µM. Further, the “Result of the bacterial reverse gene mutation test Ames MPF Penta I, TA98” value in data set [2] (with addition of S9 mix) and in data set [2] (without addition of S9 mix) was “negative” in each case.

As to `CCOc1ccccc1S(=O)(=O)NC(=O)c1cc2ccc(C(C)C)cc2o1` [Example 55, N-(2-Ethoxybenzenesulfonyl)-6-(propan-2-yl)-1-benzofuran-2-carboxamide], the “Result of the bacterial reverse gene mutation test Ames MPF Penta I, TA1537” value in data set [1] (with addition of S9 mix) and in data set [1] (without addition of S9 mix) was “negative” throughout. For the same molecule, the EC50 is greater than 2e-05 M in the data set with LCLC-97TM1 cells and 1.27e-05 M in the data set on ZR-75-1 cells. Besides, at KAT6B, the IC50 is 0.538 µM. Further, the “Result of the bacterial reverse gene mutation test Ames MPF Penta I, TA98” value in data set [2] (with addition of S9 mix) and in data set [2] (without addition of S9 mix) was “negative” throughout.
